Article PMC5725665, “Discovery of a Highly Selective Cell‐Active Inhibitor of the Histone Lysine Demethylases KDM2/7” (Angewandte Chemie (International Ed. in English), 2017)

Legend:
Test in all cases: biochemical
JMJD2A (KDM4A) [1] = target: T1, JMJD2A (KDM4A) (Homo sapiens, UniProt O75164); design: AlphaScreen histone demethylase activity assay; conditions: read-out: KDM4A % Inhib. (18.75 uM)
T1 sequence (O75164 1-1064): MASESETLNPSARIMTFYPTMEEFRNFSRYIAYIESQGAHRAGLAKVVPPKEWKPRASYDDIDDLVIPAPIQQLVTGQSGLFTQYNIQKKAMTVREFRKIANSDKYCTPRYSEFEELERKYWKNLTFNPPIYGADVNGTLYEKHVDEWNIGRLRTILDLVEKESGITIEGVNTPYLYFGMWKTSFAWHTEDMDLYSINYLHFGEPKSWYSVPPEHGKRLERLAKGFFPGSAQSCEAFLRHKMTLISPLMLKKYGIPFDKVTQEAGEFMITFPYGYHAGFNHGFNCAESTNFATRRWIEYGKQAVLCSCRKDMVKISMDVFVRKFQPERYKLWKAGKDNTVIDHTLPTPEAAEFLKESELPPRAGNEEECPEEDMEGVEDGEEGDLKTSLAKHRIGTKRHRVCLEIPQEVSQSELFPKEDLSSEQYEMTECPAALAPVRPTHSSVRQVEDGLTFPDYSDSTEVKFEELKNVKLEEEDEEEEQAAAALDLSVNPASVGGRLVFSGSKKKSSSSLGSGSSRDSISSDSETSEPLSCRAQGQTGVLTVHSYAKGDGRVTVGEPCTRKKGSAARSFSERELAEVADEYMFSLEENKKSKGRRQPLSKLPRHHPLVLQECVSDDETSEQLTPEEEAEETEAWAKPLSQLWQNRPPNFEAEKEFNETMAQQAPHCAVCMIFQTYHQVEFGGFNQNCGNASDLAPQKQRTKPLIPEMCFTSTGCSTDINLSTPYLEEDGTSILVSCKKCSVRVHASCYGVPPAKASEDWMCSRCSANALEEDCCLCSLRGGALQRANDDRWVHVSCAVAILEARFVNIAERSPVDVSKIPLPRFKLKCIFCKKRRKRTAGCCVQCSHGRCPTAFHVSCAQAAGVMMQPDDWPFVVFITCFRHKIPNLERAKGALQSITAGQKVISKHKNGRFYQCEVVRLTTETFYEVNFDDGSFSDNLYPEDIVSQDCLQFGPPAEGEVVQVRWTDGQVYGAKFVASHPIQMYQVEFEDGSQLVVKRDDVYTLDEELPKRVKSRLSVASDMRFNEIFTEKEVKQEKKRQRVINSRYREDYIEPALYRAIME

JARID1A (KDM5A) = JARID1A (KDM5A) (Homo sapiens, UniProt P29375); design: AlphaScreen histone demethylase activity assay
From the text: (§1) A base‐mediated 5‐endo‐trig cyclization of a C‐2‐substituted aromatic imine afforded the racemic indoline core with two adjacent stereocenters. Subsequent acylation of the indoline ring system conferred stability towards oxidation and provided a handle for modulating polarity. Finally, metal‐catalysed cross‐coupling of the aryl bromide provided access to a variety of linkers between the indoline core and pyrrolidine capping group. In total, 45 racemic compounds were synthesized, and IC50 values for inhibition of KDM2A were determined using two orthogonal enzyme activity assays: AlphaScreen25 and RapidFire MS26 (see Section S3.1 in the Supporting Information for complete inhibition data). Key structure–activity relationships are summarized below (Scheme 1 B, compounds 2–12). […] In immunofluorescence assays using HeLa cells ectopically expressing catalytically active KDM2A, a dose‐dependent increase in H3K36me2 staining was observed upon incubation with (S,S)‐6, reflecting augmented cellular H3K36me2 levels (Figure 2 A and Section S3.3). […] To profile its selectivity, (S,S)‐6 was tested for inhibitory activity against a panel of KDMs, methyllysine binding motifs, and epigenetic enzymes.

JMJD2A (KDM4A) [2] = target: T1, JMJD2A (KDM4A); design: AlphaScreen histone demethylase activity assay; conditions: for IC50: read-out: KDM4A pIC50 (converted); for KDM4A pIC50: inhibitor
From the text: as §1

KDM2A = target: T2, KDM2A (Homo sapiens, UniProt Q9Y2K7); design: RapidFire MS histone peptide demethylation assay; conditions: for KDM2A RapidFire pIC50: inhibitor
T2 construct: isolated enzyme
T2 sequence (Q9Y2K7 1-517 limits assumed): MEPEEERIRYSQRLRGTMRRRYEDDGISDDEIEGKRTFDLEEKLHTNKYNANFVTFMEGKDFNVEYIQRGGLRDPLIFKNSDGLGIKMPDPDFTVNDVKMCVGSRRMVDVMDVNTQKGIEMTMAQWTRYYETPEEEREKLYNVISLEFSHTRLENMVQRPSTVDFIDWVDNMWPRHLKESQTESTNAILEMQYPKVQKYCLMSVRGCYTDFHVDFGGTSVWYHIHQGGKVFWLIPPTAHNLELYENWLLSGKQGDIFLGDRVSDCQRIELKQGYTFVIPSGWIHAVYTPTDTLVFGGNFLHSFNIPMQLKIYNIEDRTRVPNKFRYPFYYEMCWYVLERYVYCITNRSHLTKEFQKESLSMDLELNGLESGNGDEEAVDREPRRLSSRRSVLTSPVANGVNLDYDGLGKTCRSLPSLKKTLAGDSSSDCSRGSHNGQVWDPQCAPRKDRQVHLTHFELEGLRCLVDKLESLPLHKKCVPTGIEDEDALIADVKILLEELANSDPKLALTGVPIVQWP
Procedure: [formula] Scheme 1 A) General synthetic strategy for racemic synthesis of KDM2A inhibitors. Reagents and conditions: i) Zn powder (10 equiv), NH4Cl (15 equiv), 5:1 acetone/H2O or H2, Pd/C (10 % w/w), EtOAc; ii) ArCHO (1.3 equiv), MgSO4 (5 equiv), PhMe or ArCHO (1.3 equiv), pyrrolidine (0.1 equiv), 3 Å sieves, CH2Cl2; iii) KO^tBu (1.1 equiv), PhMe, 0 °C; iv) R^3COCl (2–5 equiv), pyridine (2–5 equiv), CH2Cl2; v) metal‐catalysed cross‐coupling. B) Key structure–activity relationships. IC50 values were determined by RapidFire MS and confirmed by AlphaScreen. All compounds are racemic. C) Catalytic enantioselective synthesis. Reagents and conditions: i) CsOH⋅H2O (2.0 equiv), catalyst 14/16 (10 mol %), PhMe, −30 °C. Catalyst 14: 89 %, d.r. 10:1, e.r. 88:12; catalyst 16: 84 %, d.r. 7:1, e.r. 17:83; ii) CH3COCl (2.0 equiv), pyridine (2.0 equiv), CH2Cl2; iii) H2, Pd/C (10 % w/w), 88 % (2 steps); iv) K2CO3 (5 equiv), Br(CH2)7Br (4 equiv), acetone, reflux, 38 %; v) K2CO3 (5 equiv) pyrrolidine (4 equiv), CH3CN, 65 %; vi) PhN(SO2CF3)2 (1.1 equiv), DIPEA (2.0 equiv), CH2Cl2, 0 °C, 85 %; vii) 7‐pyrrolidine‐hept‐1‐yne (1.5 equiv), PdCl2(PPh3)2 (5 mol %), CuI (5 mol %), HN(^iPr)2, 75 °C, 79 %; viii) H2, Pd/C (10 % w/w), MeOH, 74 %. DIPEA=(^iPr)2NEt. A base‐mediated 5‐endo‐trig cyclization of a C‐2‐substituted aromatic imine afforded the racemic indoline core with two adjacent stereocenters. Subsequent acylation of the indoline ring system conferred stability towards oxidation and provided a handle for modulating polarity. Finally, metal‐catalysed cross‐coupling of the aryl bromide provided access to a variety of linkers between the indoline core and pyrrolidine capping group. In total, 45 racemic compounds were synthesized, and IC50 values for inhibition of KDM2A were determined using two orthogonal enzyme activity assays: AlphaScreen25 and RapidFire MS26 (see Section S3.1 in the Supporting Information for complete inhibition data). Key structure–activity relationships are summarized below (Scheme 1 B, compounds 2–12).

Sequence of JARID1A (KDM5A) (P29375 whole entry): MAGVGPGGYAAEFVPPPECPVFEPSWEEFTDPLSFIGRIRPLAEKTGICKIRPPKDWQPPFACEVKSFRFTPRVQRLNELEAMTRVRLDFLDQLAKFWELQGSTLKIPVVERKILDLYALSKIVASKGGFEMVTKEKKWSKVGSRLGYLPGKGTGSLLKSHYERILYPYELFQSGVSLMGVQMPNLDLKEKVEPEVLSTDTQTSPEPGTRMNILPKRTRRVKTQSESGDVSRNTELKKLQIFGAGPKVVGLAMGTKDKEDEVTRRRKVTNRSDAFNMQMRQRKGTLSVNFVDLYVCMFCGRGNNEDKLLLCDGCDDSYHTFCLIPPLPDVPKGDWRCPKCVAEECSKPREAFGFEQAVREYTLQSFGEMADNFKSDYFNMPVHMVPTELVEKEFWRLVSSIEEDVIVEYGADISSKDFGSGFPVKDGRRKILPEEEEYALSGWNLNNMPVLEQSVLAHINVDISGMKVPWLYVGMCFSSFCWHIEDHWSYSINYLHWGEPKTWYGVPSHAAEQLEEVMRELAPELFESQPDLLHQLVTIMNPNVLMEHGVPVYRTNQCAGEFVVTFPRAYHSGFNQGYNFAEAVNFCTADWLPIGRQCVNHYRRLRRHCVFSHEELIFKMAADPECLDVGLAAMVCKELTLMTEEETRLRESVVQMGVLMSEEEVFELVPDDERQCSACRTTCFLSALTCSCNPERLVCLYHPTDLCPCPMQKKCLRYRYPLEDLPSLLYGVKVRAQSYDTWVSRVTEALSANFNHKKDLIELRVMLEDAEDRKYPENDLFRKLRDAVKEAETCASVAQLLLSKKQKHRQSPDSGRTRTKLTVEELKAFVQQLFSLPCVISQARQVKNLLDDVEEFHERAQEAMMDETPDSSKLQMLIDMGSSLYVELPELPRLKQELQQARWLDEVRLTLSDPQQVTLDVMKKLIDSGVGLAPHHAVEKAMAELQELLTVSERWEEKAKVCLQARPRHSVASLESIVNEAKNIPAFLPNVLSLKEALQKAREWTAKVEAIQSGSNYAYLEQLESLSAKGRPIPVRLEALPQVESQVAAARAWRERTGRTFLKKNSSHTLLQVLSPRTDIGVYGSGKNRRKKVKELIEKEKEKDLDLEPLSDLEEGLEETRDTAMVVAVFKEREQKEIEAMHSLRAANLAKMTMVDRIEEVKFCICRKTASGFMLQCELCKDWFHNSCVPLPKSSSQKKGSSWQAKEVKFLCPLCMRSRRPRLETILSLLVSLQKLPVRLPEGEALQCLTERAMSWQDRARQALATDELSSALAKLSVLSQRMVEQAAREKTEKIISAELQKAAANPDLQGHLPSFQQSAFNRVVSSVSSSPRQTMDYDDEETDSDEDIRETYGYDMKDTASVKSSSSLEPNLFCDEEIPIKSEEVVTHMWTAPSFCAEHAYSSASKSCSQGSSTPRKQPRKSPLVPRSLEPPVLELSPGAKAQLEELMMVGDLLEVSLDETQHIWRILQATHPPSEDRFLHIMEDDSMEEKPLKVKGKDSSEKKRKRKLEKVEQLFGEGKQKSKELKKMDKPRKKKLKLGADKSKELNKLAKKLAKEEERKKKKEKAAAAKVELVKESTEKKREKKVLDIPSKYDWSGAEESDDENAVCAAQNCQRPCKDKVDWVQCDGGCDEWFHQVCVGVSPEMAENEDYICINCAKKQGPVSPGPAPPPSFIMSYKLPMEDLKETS

| inhibition at 18.75 µM (JMJD2A (KDM4A) [1]) [%] | inhibition at 50 µM (JARID1A (KDM5A)) [%] | SMILES | also measured |
| --- | --- | --- | --- |
| -9.59 | 36.7 | CC(=O)N1c2ccccc2[C@@](C#N)(c2ccccc2)[C@H]1c1cncc(OCCCCCCCN2CCCC2)c1 (racemic) [compound 145, (2RS,3SR)-1-Acetyl-3-phenyl-2-(5-((7-(pyrrolidin-1-yl)heptyl)oxy)pyridin-3-yl)indoline-3-carbonitrile] | IC50 (JARID1A (KDM5A); read-out: KDM5A pIC50 (converted)): > 50.1 µM; IC50 (JMJD2A (KDM4A) [2]): > 20 µM; IC50 (KDM2A; read-out: KDM2A RapidFire pIC50 (converted)): 1.01 µM |
| 7.8 | 40 | CC(=O)N1c2ccccc2[C@](C#N)(c2ccccc2)[C@H]1c1cncc(CCCCCCCN2CCCC2)c1 [(R,R)-6] |  |
| -1.1 | 25.5 | CC(=O)N1c2ccccc2[C@](C#N)(c2ccccc2)[C@H]1c1cncc(CCCCCCCN2CCCC2)c1 (racemic) [compound 6, 6] |  |
| -5.4 | 24 | CC(=O)N1c2ccccc2[C@](C#N)(c2ccccc2)[C@H]1c1cncc(OCCCCCCCN2CCCC2)c1 (racemic) [compound 3, 3] |  |

Second part, the molecule before the results:

| SMILES | inhibition at 18.75 µM (JMJD2A (KDM4A) [1]) [%] | inhibition at 50 µM (JARID1A (KDM5A)) [%] | also measured |
| --- | --- | --- | --- |
| CC(=O)N1c2ccccc2[C@@](C#N)(c2ccccc2)[C@H]1c1cccc(/C=C/CCCCCN2CCCC2)c1 (relative stereo) [compound 126, 126] | 27.8 |  | KDM4A pIC50 (JMJD2A (KDM4A) [2]): < 4.7; KDM2A RapidFire pIC50 (KDM2A): 5.983 |
| CC(=O)N1c2ccccc2[C@](C#N)(c2ccccc2)[C@H]1c1ccc(C#CCCCCCN2CCCC2)o1 (relative stereo) [compound 132, 132] | 18.3 | 49.1 | KDM5A pIC50 (JARID1A (KDM5A); inhibitor): < 4.3; KDM4A pIC50 (JMJD2A (KDM4A) [2]): < 4.7; KDM2A RapidFire pIC50 (KDM2A): 5.990 |
| CC(=O)N1c2ccccc2C(C#N)(c2ccccc2)C1c1cncc(C#CCCCCCN2CCCC2)c1 (stereo not shown) [compound 130, 130] | -1.3 | 30.9 |  |
| CC(=O)N1c2ccccc2[C@](C#N)(c2ccccc2)[C@H]1c1cncc(C#CCCCCCN2CCCC2)c1 (racemic) [compound 4, 4] | 10.2 | 39 |  |
| CC(=O)N1c2ccccc2C(C#N)(c2ccccc2)C1c1cc(CCCCCCCN2CCCC2)co1 (stereo not shown) [compound 8, 8] | 21.8 | 23 |  |
| CCOC(=O)C1(C#N)c2ccccc2N(C(C)=O)C1c1cncc(C=CCCCCCN2CCCC2)c1 (stereo not shown) [compound 124, 124] | -12.7 | 20 |  |
| CC(=O)N1c2ccccc2[C@](C#N)(c2ccccc2)[C@H]1c1cncc(OCCOCCOCCN2CCCC2)c1 (racemic) [compound 148, (2RS,3RS)-1-Acetyl-3-phenyl-2-(5-(2-(2-(2-(pyrrolidin-1-yl)ethoxy)ethoxy)ethoxy)pyridin-3-yl)indoline-3-carbonitrile] | -5.9 |  | IC50 (JMJD2A (KDM4A) [2]): > 20 µM |
| CC(=O)N1c2ccccc2[C@](C#N)(c2ccccc2)[C@H]1c1ccc(CCCCCCCN2CCCC2)o1 (racemic) [compound 7, 7] | 8.5 | 47.5 |  |
